The text below walks through data of PMC6222614, “Disubstituted 4-Chloro-3-nitrophenylthiourea Derivatives: Antimicrobial and Cytotoxic Studies” (Molecules : A Journal of Synthetic Chemistry and Natural …, 2018).

Data set [1] has as its system MT-4 cells. Kind of data set: Cytotoxicity against mock-infected MT-4 cells (MTT). To be noted: concentration reducing viability of mock-infected MT-4 cells by 50%, 96 h. In kind it is cell-based, human. The method, boiled down: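 Uninfected MT-4 cells (HTLV-1-transformed human CD4+ T cells) seeded at 1 × 10^5 cells/mL in RPMI-1640 with 10% FBS and grown with serially diluted compounds at 37 °C, 5% CO2. Viability read by MTT after 96 h.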

Data set [2] has as its system HIV-1 IIIB. As to the kind of experiment: Anti-HIV-1 activity: protection of MT-4 cells from virus-induced cytopathogenicity (MTT). In kind it is cell-based, Human Immunodeficiency Virus type-1. To be noted: 50% protection of MT-4 cells from HIV-1 induced cytopathogenicity, MTT, 4-day incubation; read-out: HIV-1IIIB EC50. The method, boiled down:
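MT-4 cells (1 × 10^4/well) infected with HIV-1 IIIB at m.o.i. 0.01 (100 CCID50) in presence of serial compound dilutions. Protection from virus-induced cytopathogenicity measured by MTT viability after 4 days at 37 °C.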

In data set [3] the test system is CCRF-CEM. Kind of data set: Antiproliferative assay (MTT). The format is cell-based, human. To be noted: concentration reducing cell proliferation by 50%, 96 h, mean of three determinations. On the procedure:
(§1) Cell lines derived from human hematological tumors were: CD4+ human T-cells containing an integrated HTLV-1 genome (MT-4); CD4+ human acute T-lymphoblastic leukemia (CCRF-CEM); human splenic B-lymphoblastoid cells (WIL-2NS); human acute B-lymphoblastic leukemia (CCRF-SB). Cells were seeded at an initial density of 1 × 10^5 cells/mL in 96 well plates in RPMI-1640 medium supplemented with 10% fetal calf serum (FCS), 100 units/mL penicillin G and 100 μg/mL streptomycin.
(§2) Cell lines derived from human solid tumors were: Skin melanoma (SK-MEL-28); prostate carcinoma (DU-145). Normal tissues foreskin fibroblasts (CRL-7065) were also used. Cells were seeded at 1 × 10^5 cells/mL in 96 well plates in specific media supplemented with 10% FCS and antibiotics, as above. Cell cultures were then incubated at 37 °C in a humidified, 5% CO2 atmosphere in the absence or presence of serial dilutions of test compounds. Cell viability was determined after 96 h at 37 °C by the MTT method.

For data set [4], the system named is CCRF-SB. Kind of data set: Antiproliferative assay (MTT). Conditions: concentration reducing cell proliferation by 50%, 96 h, mean of three determinations. The format is cell-based, human. On the procedure:
as §1, §2

Data set [5] relates to MT-4. Kind of data set: Antiproliferative assay (MTT). The format is cell-based, human. To be noted: concentration reducing cell proliferation by 50%, 96 h, mean of three determinations. On the procedure:
as §1, §2

For data set [6], the system named is WIL-2NS. As to the kind of experiment: Antiproliferative assay (MTT). The format is cell-based, human. To be noted: concentration reducing cell proliferation by 50%, 96 h, mean of three determinations. Here is the method:
as §1, §2

In data set [7] the test system is DU145. As to the kind of experiment: Antiproliferative assay (MTT). The format is cell-based, human. To be noted: prostate carcinoma, concentration reducing cell proliferation by 50%, 96 h. Here is the method: as §2
Data set [8] deals with SK-MEL-28. As to the kind of experiment: Antiproliferative assay (MTT). The format is cell-based, human. To be noted: skin melanoma, concentration reducing cell proliferation by 50%, 96 h. On the procedure: as §2
In data set [9] the test system is CRL7065. As to the kind of experiment: Antiproliferative assay (MTT), normal cell line. To be noted: normal foreskin fibroblasts, concentration reducing cell proliferation by 50%, 96 h. The format is cell-based, human. On the procedure:
as §2

Data set [10] has as its system HaCaT cells. As to the kind of experiment: Lactate dehydrogenase (LDH) release assay in HaCaT cells. The format is cell-based. Conditions: 24 h. Here is the method:
Cells were passaged using trypsin-EDTA (Gibco Life Technologies, Carlsbad, CA, USA) and cultured in 24-well plates (2.5 × 10^4 cells per well). Experiments were conducted in DMEM with 2% FBS.
Release of lactate dehydrogenase (LDH) from the cytosol to culture medium is a marker of cell death. The assay was performed after 24 h incubation of HaCaT cells in 24-well plates with investigated concentrations of each compound. The activity of LDH released from the cytosol of damaged cells to the supernatant was measured using the protocol of the cytotoxicity detection kit LDH test described by the manufacturer (Roche Diagnostics, Berlin, Germany). Absorbance was measured at 490 nm using a microplate reader (using Epoch microplate reader, BioTek Inc., Winooski, VT, USA) equipped with Gen5 software (BioTech Instruments, Inc., Biokom, Janki, Polska)
Compounds mediated cytotoxicity expressed as the LDH release (%) was determined by the following equation: [(A test sample—A low control)/(A high control—A low control)] × 100% (A-absorbance); where “low control” were cells in DMEM with 2% FBS without tested compounds, and “high control” were cells incubated in DMEM with 2% FBS with 10% Triton X-100 (100% LDH release).

Data set [11] deals with HaCaT cells. Kind of data set: Proliferation rate in cultures of HaCaT cells (trypan blue counting). The format is cell-based, human. Conditions: lowest concentrations (8 µM for 11 and 13, 37 µM for 25), 48 h. Here is the method: Human immortal keratinocyte cell line from adult human skin (HaCaT) was purchased from American Type Culture Collection (Rockville, MD, USA), and cultured in Dulbecco’s Modified Eagle’s Medium (DMEM), supplemented with antibiotics (penicillin and streptomycin), 10% heat-inactivated FBS-fetal bovine serum (Gibco Life Technologies, Carlsbad, CA, USA) at 37 °C and 5% CO2 atmosphere. Cells were passaged using trypsin-EDTA (Gibco Life Technologies, Carlsbad, CA, USA) and cultured in 24-well plates (2.5 × 10^4 cells per well). Experiments were conducted in DMEM with 2% FBS.
After 48 h incubation with the lowest concentration of the tested compound the increased number of viable cells were assessed by direct counting of cells using trypan blue with a Countess Automated Cell Counter (Invitrogen, Carlsbad, CA, USA). The results are presented as a % of viable and dead cells versus control.

Structures are written as SMILES.

Take `O=[N+]([O-])c1cc(NC(=S)Nc2ccc(Cl)c(Cl)c2)ccc1Cl` [Compound 11]: the CC50 worked out at 7.9 µM in data set [1]; 8 µM in data set [3]; 8.6 µM in [4]; 7.9 µM in [5]; 9.9 µM in data set [6]; 6 µM in [7]. In addition, the CC50 in [8] was 8.5 µM; in [9], 16 µM. In addition, the EC50 in data set [2] was greater than 7.9 µM. The “cell mortality (LDH release) increased to” value in [10] is 20%. Moreover, the “LD10 (concentration at which 10% of cells were dead)” value in [10] (LDH assay) is 8 µM. For the same molecule, the “inhibition of viable cell proliferation” value in data set [11] is listed as roughly 65%.

A word on the CC50: it is the concentration giving 50% cytotoxicity. Read a low CC50 as greater toxicity to the cells. Broadly, the EC50 is the concentration giving half of the maximal effect.
